Like-named read-outs stand apart in the source and are kept apart here. Blank lines part the entries; values can stand above or below the compound they belong to.
What was measured:
[1] = API particle size distribution (Dv(10), Dv(50), Dv(90), Span); type: physicochemical
From the text: In determining and characterizing particle size, e.g., particle size of an API (active pharmaceutical ingredient), the particle size parameters Dv(10), Dv(50) and Dv(90) may be used. Particle size measurements are preferably expressed in terms of Dv(10), Dv(50), and Dv(90), wherein Dv(10) refers to the particle size below which 10% of the volume of material exists; Dv(50) refers to the particle size below which 50% of the volume of material exists; and Dv(90) refers to the particle size below which 90% of the volume of material exists.
Referring to Table 5, experiments were performed with a suspension comprising the active pharmaceutical ingredient (the API), i.e., 17-HPC was the API in these experiments, wherein 17-HPC was present at approximately five percent (5%) w/w in water; and the suspension also comprised the surfactant Tween 80 at approximately 15% in these experiments (processing conditions conducted at Pressure=90 bar). […] Particle size measurements are expressed in terms of Dv(10), Dv(50), and Dv(90), wherein Dv(10) refers to the particle size below which 10% of the volume of material exists; Dv(50) refers to the particle size below which 50% of the volume of material exists; and Dv(90) refers to the particle size below which 90% of the volume of material exists). […]
Exemplary particle size reduction experiments, and characterization of API (i.e., 17-HPC) particle size distribution, using a suspension prepared without a surfactant. Referring to Table 7, particle size reduction of 17-HPC was observed without using any surfactant. Experiments were performed with a suspension comprising the active pharmaceutical ingredient (the API), i.e., 17-HPC in these experiments, in water and without a surfactant. FIG. 16 depicts an exemplary API particle size distribution profile (17-HPC is the active ingredient) after a spray-drying (SD) process. Referring again to FIG. 16, and also to Table 7, an exemplary 17-HPC particle size distribution profile was obtained after approximately 10 to 55 cycles of milling. API particle size was measured after spray drying (SD). Particle size measurements are expressed in terms of Dv(10), Dv(50), and Dv(90), wherein Dv(10) refers to the particle size below which 10% of the volume of material exists; Dv(50) refers to the particle size below which 50% of the volume of material exists; and Dv(90) refers to the particle size below which 90% of the volume of material exists).

[2] = Dynamic vapor sorption (DVS) of 17-HPC powder; type: physicochemical; conditions: FIG. 18; increasing percent relative humidity
Protocol: Dynamic vapor sorption (DVS) is a gravimetric technique that measures how quickly and how much of a solvent is absorbed by a sample, such as a dry powder absorbing water. DVS accomplishes this by varying the vapor concentration surrounding the sample and measuring the change in mass which this produces.
Analysis of 17-HPC dry powder (obtained after particle size reduction and spray drying or SD) was performed. FIG. 18 depicts exemplary results from a dynamic vapor sorption (DVS) analysis of a dry powder obtained after a spray-drying (SD) process. One particular batch (PGC2011-020PD) was selected to be analyzed by DVS. […] There was no substantive change in adsorption or desorption even with conditions of increasing percent relative humidity. Referring to FIG. 19, exemplary results are shown of XRPD analysis of a 17-HPC dry powder obtained after particle size reduction and a spray-drying (SD) process. One particular batch (PGC2011-020PD) was selected to be analyzed by XRPD.

[3] = tested on: PHA-induced IL-2 production in PBMCs; test: PHA-induced IL-2 production in PBMCs from healthy male smokers (no IL-2/IL-4 added), ELISA; type: cell-based, human; conditions: for levels of IL-2 in PBMCs: FIG. 1, PHA; for % inhibition of PHA stimulation of IL-2: Table 2
Protocol: PBMCs were isolated from human blood buffy coats provided by a regional blood center. Random buffy coat cells from male donors were a by-product of blood processed for clinical use and no details (i.e., personal identification and background) were provided except for tobacco use. […] PBMCs were separated using a porous high density polyethylene barrier (HISTOPAQUE from GEHealthcare Bio-Sciences AB (US). After centrifugation of blood samples in each tube (35 minutes at 800×g at room temperature, or RT), PBMCs were collected and washed twice with Hank's buffered saline solution (HBSS). PBMCs were resuspended in RPMI-1640 medium containing 10% fetal calf serum (FCS) and 15 mM glutamine and cells were counted and plated.
(§1) PBMCs (2×10^6) were incubated with or without IL-2 (13 ng/ml) and IL-4 (6.5 ng/ml) for 48 hours in RPMI-1640 medium containing 10% FCS and 2 mM glutamine. […] IL-2 and IL-4 stimulated PBMCs were also plated at a concentration of 10^6 cells/ml in 96-well plates ready for PHA (15 μg/mL, 24 hours) stimulation of cytokine release and detection by ELISA.
Serial dilutions of standards and PBMCs' supernatants were measured by enzyme linked immunosorbent assay to determine IL-2 at baseline and its levels after 17HPC, P4 and MAP treatments. Optical density was measured at 450 nm and corrected with 550 nm. The concentration of TL-2 was calculated using the standard curve and taking into account the supernatant dilution used. Detection limit for IL-2 is 4.0 pg/ml.
Data are expressed as mean±SD. The efficacies of the drug treatments were analyzed by paired t-test. One-way analysis of variance was used to compare three or more matched groups and 95% CI was performed to present groups differences. All graphs indicate mean values of results or % inhibition of PHA-stimulated IL-2. IC50 values were calculated by using a sigmoidal model (BioDataFit). A p value <0.05 was considered statistically significant.
(§2) IL-2 levels were quantified using ELISA.
IL-2 levels were quantified using ELISA. IC50 values were calculated by using a sigmoidal model (BioDataFit).
as §2, §2, §2

[4] = tested on: PHA-induced IL-2 release in IL-2 and IL-4 treated (steroid resistant) PBMCs; test: IL-2/IL-4 induced steroid resistance model in PBMCs: dexamethasone inhibition of PHA-induced IL-2 release; type: cell-based, human
Protocol: J Immunol 2009; 183; 164-171). […] Following PBMCs stimulation with mitogen phytohaemagglutinin (PHA), there is a strong correlation between cytokine secretion levels and steroid resistance as well as steroid sensitivity in vitro. Addition of IL-2, IL-4 and TNF-reduce steroid sensitivity.
as §1
IL-2/4 induced steroid resistance in PBMCs, a well-recognized study model, was used to evaluate potential modifiers of steroid resistance and sensitivity. PBMCs from healthy smokers were collected. Corticosteroid insensitivity or resistance was induced by adding IL-2 and IL-4 in peripheral blood mononuclear cells (PBMCs) from healthy male smokers (n=˜11). […] IL-2 levels were quantified using ELISA.
J Immunol 2009; 183; 164-171).
as §2

[5] = Table 7, powders after spray drying, bulk material for comparison
[6] = Example 8, Dexamethasone only 10E−6M
[7] = Example 8, Dexamethasone only 10E−8M
[8] = Example 8, Dexamethasone only 10E−11M
[9] = Homo sapiens, PBMC, read-out: % inhibition on PHA-induced IL-2 production

- Particle Size Dv(10) ([1]; Table 5, bulk material): 6.345 μm
- Particle Size Dv(50) ([1]; Table 5, bulk material): 56.762 μm
- Particle Size Dv(90) ([1]; Table 5, bulk material): 307.607 μm
- Particle Size Span ([1]; Table 5, bulk material): 5.307
- API particle size after SD (powders) Dv(10) [1, 5]: 2.398 μm
- API particle size after SD (powders) Dv(50) [1, 5]: 23.610 μm
- API particle size after SD (powders) Dv(90) [1, 5]: 98.799 μm
- API particle size after SD (powders) Span [1, 5]: 4.083
SMILES: CCCCCC(=O)O[C@]1(C(C)=O)CC[C@H]2[C@@H]3CCC4=CC(=O)CC[C@]4(C)[C@H]3CC[C@@]21C [Bulk material]
- water uptake in DVS (percent change in weight vs RH %) [2]: neither the obtained powders nor the bulk material gained any measurable quantity of water

SMILES: C[C@@H]1C[C@H]2[C@@H]3CCC4=CC(=O)C=C[C@]4(C)[C@@]3(F)[C@@H](O)C[C@]2(C)[C@@]1(O)C(=O)CO [Dexamethasone]
- % inhibition of PHA-induced IL-2 production [3, 6]: (86%)
- mean IL-2 [3, 6]: 109.6 pg/mL
- % inhibition of PHA-induced IL-2 production [3, 7]: 67%
- mean IL-2 [3, 7]: 251.6 pg/mL
- % inhibition of PHA-induced IL-2 production [3, 8]: (72%)
- mean IL-2 [3, 8]: 216.1 pg/mL
- levels of IL-2 in PBMCs ([3]; dex 10^−8M, n=17, mean±SD): 293 ± 338 pg/mL
- levels of IL-2 in PBMCs ([3]; dexamethasone 10^−6M, n=17, mean±SD): 144 ± 157 pg/mL
- levels of IL-2 in PBMCs ([3]; dexamethasone 10^−10 M, n=14, mean±SD): 287 ± 313 pg/mL
- levels of IL-2 in PBMCs ([3]; dexamethasone 10^−12 M, n=11, mean±SD): 371 ± 447 pg/mL
- inhibition at 1 µM ([3]; Homo sapiens, PBMC): 87%
- IC50 ([3]; Homo sapiens, PBMC, Dexamethasone+17HPC at lower 17HPC concentrations, read-out: Dexamethasone-IC50): 0.001 to 0.0631 nM
- IC50 ([3]; Homo sapiens, PBMC, read-out: Dexamethasone IC50, Dexamethasone only, sigmoidal model, N=14): 31.6 nM
- IC50 ([3]; Homo sapiens, PBMC, read-out: Dexamethasone IC50, with 17HPC 10^−5M add-on): 25.4 nM
- IC50 ([3]; Homo sapiens, PBMC, read-out: Dexamethasone IC50, with 17HPC 10^−10M add-on): 0.0627 nM
- inhibition at 0.0001 µM [3, 9]: 52%
- mean IL-2 ([3]; Table 1, Dexamethasone only 10^−6M): 160.6 pg/mL
- mean IL-2 ([3]; Table 1, Dexamethasone only 10^−8M): 398.1 pg/mL
- mean IL-2 ([3]; Table 1, Dexamethasone only 10^−10M): 312.7 pg/mL
- mean IL-2 ([3]; Table 1, Dexamethasone only 10^−12M): 371.7 pg/mL
- % inhibition of PHA stimulation of IL-2 ([3]; Dexamethasone only 10^−6 M (Imax)): 78%
- % inhibition of PHA stimulation of IL-2 ([3]; Dexamethasone only 10^−8 M): 46%
- % inhibition of PHA stimulation of IL-2 ([3]; Dexamethasone only 10^−10 M): 57%
- % inhibition of PHA stimulation of IL-2 ([3]; Dexamethasone only 10^−12 M): 49%
- effect in basal IL-2 level ([3]; no PHA stimulation, data not shown): no significant effect
- % inhibition on PHA-induced IL-2 production ([4]; FIG. 2, Dexamethasone 10^−10 M, with addition of IL-2 and IL-4): no inhibition
- PHA-induced IL-2 level ([4]; FIG. 5, Dexamethasone 10^−10 M without 17HPC): 2364 pg/mL
- inhibition at 1 µM [4, 9]: 21%

Reference: US20110262502A1, “PULMONARY DELIVERY OF 17-HYDROXYPROGESTERONE CAPROATE (17-HPC)” (Prairie Pharmaceuticals LLC, priority 2010, published 2011)
